melting point: 272 to 275 °C
Structure (SMILES): O=Cc1c(O)cccc1OCC(=O)N(C1CCOCC1)C1CCOCC1 [GBT001203, 2-(2-formyl-3-hydroxyphenoxy)-N,N-bis(tetrahydro-2H-pyran-4-yl)acetamide]
